Reference: patent US12509727B2, “Composition for diagnosis of Sjögren's syndrome” (THE CATHOLIC UNIVERSITY OF KOREA INDUSTRY-ACADEMIC …, priority 2017, dated 2025)

Assays:
Assay type in all cases: in vivo, human
ATG5 protein = assay: Western blotting of tears, relative concentration measurement, after corticosteroid treatment; conditions: tears of SS DE patients; level before treatment 5.06±0.31; statistically significantly decreased
Procedure: (§1) Tears were collected from the Schirmer strips which absorbed the tear fluid as in Example 1. In order to extract tears, the Schirmer strips were placed in tubes containing extraction buffer (NaCl 0.5 M, Tween 20 0.5% in PBS). After one hour, the strips were transferred to a 0.5 ml tube with a hole at the bottom thereof using a cannula. The tube was inserted into a larger tube (1.5 ml). It was centrifuged at 12,000 rpm for 15 minutes. The centrifugal force caused the fluid to be drawn from the strip. Thus, the tear fluid passed through the center hole at the bottom of the small tube and was collected into the external 1.5 ml tube. The tear fluid was mixed with the sample-loading buffer, heated for 10 minutes, and centrifuged. Then, the protein concentration in the clear isolate was determined by using the BCA protein assay kit (Thermo Fisher Scientific, Rockford, IL). […] The improved chemical luminescence reagent (ECL; Amersham Biosciences, Sweden) was used to detect the protein band. […]
(§2) After applying topical corticosteroids to Sjögren's syndrome dry eye patients, change in the clinical parameters was assessed as well as autodigestion marker expression. After one month with topical corticosteroid therapy with artificial tears, OSDI score, Schirmer I value, TBUT, corneal staining, conjunctival staining, and OSS score were measured as in Example 1. […]

LC3B-II/I protein ratio = assay: as above; conditions: tears of SS DE patients; level before treatment 1.87±0.10; statistically significantly decreased
Procedure: as §1, §2

[1] = test system: Sjögren's syndrome dry eye patients; assay: Clinical evaluation of ocular surface parameters before and after topical corticosteroid treatment; conditions: SS DE patients, after one month topical corticosteroid with artificial tears, mean ± SD
Procedure: […] participated in this Example (FIG. 1): 40 patients with Sjögren's syndrome dry eye (SS DE) (78 eyes), 24 patients with non-Sjögren's syndrome dry eye (non-SS DE) (48 eyes), and 16 normal healthy subjects as controls (25 eyes). 16 patients of the 40 patients with Sjögren's syndrome dry eye were treated with topical corticosteroid (4 times per one day for 1 month, 0.1% fluoromeladone, Sam-II Pharmaceutics Co. Seoul, Korea). […] All patients with Sjögren's syndrome dry eye were diagnosed with primary Sjögren's syndrome by a rheumatologist according to the 2012 Sjögren's International Collaborative Clinical Alliance (SICCA) classification criteria. This study excluded Sjögren's syndrome patients or subjects who had been treated with disease-modifying therapies. Due to the unique prevalence of females and males found in Sjögren's syndrome (F:M=9:1), only female patients participated in the study for the prevention of the data misinterpretation. Exclusion criteria were pregnant women, nurses, contact lens wearers, tear point closure patients, persons with eye surgery within 6 months, persons with acute or chronic eye disease other than dry eye syndrome, persons with concomitant allergies, persons with eyelid abnormalities, persons with Grade 2 or higher dysfunction of the meibomian gland. This study also excluded, as a subject, persons who had received other systemic treatments or other topical treatments other than artificial tears within the past 3 months.
The following ocular surface examinations were conducted on the 82 subjects; Schirmer I test, tear film breakup time (TBUT), ocular surface staining (OSS) score, and ocular surface disease index (OSDI) questionnaire.
The Schirmer I test was performed without anesthesia before injecting the drug into the eye. The standard Schirmer's strips were placed on the side ⅓ of the lower eyelid. After 5 minutes, the strips' wetness was measured by using a millimeter scale of the strips (Eagle Vision, Memphis, TN). Tear strips were cut horizontally and placed in cryovials. They were stored frozen for further analysis. To assess TBUT, one drop of the saline without preservatives was added to a fluorescein strip (Haag-Streit, Koeniz, Switzerland). It was applied to the conjunctiva of the lower eyelid. The patients blinked their eye 3 to 4 times for a few seconds for mixing thoroughly with the dye. Then, the test was conducted by using a slit lamp with cobalt blue light. The time until the defect appeared in the stained tear film was measured and recorded as TBUT. TBUT was measured three times and the score was averaged. OSS scores including conjunctival and corneal staining scores were evaluated according to the SICCA registry ocular examination protocol. First, one drop of 2% sterile fluorescein was put on the conjunctival sac to permeate. After one minute, the corneal staining score was assessed by evaluating fluorescein staining using a slit lamp with cobalt blue filter. The punctate epithelial erosions (PEE) stained with fluorescein were calculated and scored. When there is no PEE, the score is zero. When PEE is 1 to 5, the corneal score is 1; When PEE is 6 to 30, the score is 2; When PEE exceeds 30, the score is 3. Additional points were added when there were one or more fused staining portions, when there was staining in the pupil area of the cornea, or when there were one or more filaments in any part of the cornea. The maximum available score is 6 for each cornea. In order to measure the conjunctival staining score, fluorescein was washed with the saline without preservatives. Then, one drop of 1% Lissamine green dye (Leiter's Pharmacy San Jose, California) was applied to the lower conjunctival fornix of both eyes. […]

LC3B-II mRNA = assay: Real-time PCR of conjunctival epithelial cells (impression cytology) after corticosteroid treatment; conditions: conjunctival epithelial cells of SS DE patients; level before treatment 12.93±4.44; statistically significantly decreased
Procedure: (§3) IC was carried out 15 minutes after the last stained eye solution was permeated by using a polyethersulfone filter (Suopor 200 membrane, Pall Corporation, Port Washington, New York). The filter paper was cut in half (13×6.5 mm). The sides were attached on the upper side-nasal and the upper side-temporal bulbar conjunctiva, respectively. With 0.05% paraformaldehyde (PFA), the filter attached on the upper side-nasal conjunctiva was transferred into a tube containing 2 ml of PBS for immunostaining. The paper attached on the upper side-temporal conjunctiva was collected from the filter paper up to 3 hours for the RNA extraction.
(§4) RNAs were isolated from IC using TRIzol reagent (Gibco-Invitrogen, Grand Island, New York) according to the modified protocol (Barabino S et al., Immune response in the conjunctival epithelium of patients with dry eye. Experimental eye research 2010; 91: 524-9). […] The […] method was used for relative quantification. […]
as §2

ATG5 mRNA = assay: as above; conditions: conjunctival epithelial cells of SS DE patients; level before treatment 13.16±4.36; statistically significantly decreased
Procedure: as §3, §4, §2

[2] = test system: autodigestion marker (ATG5 and LC3B-II) in the conjunctiva; assay: Immunostaining of ATG5 and LC3B-II of conjunctiva before and after corticosteroid treatment; conditions: SS DE patients after the corticosteroid treatment; representative immunohistochemical images
Procedure: as §3
The IC filter paper having isolated epithelial cells was firmly pressed against a silane-coated slide (Muto Pure Chemicals Co., ltd. Tokyo, Japan). Thus, the epithelial cells were transferred onto the slide. They were used for immunofluorescence staining according to the Baudouins protocol. […]
as §2

CC(=O)[C@@]1(O)CC[C@H]2[C@@H]3C[C@H](C)C4=CC(=O)C=C[C@]4(C)[C@@]3(F)[C@@H](O)C[C@@]21C [corticosteroid, fluoromeladone]
ATG5 protein (vs β-actin) in tears after corticosteroid treatment (ATG5 protein): approximately 0.88±0.07 times in change | LC3B-II/I protein ratio in tears after corticosteroid treatment (LC3B-II/I protein ratio): ~1.27±0.08 times in change | Conjunctival staining score (0-6), after treatment ([1]; before treatment 2.13 ± 1.90, P 0.0018): 1.06 ± 1.70 | TBUT, after treatment ([1]; before treatment 2.16 ± 2.22, P 0.0007): 3.84 ± 1.90 s | Schirmer value, after treatment ([1]; before treatment 2.34 ± 1.66, P 0.0088): 3.78 ± 2.41 mm | Corneal staining score (0-6), after treatment ([1]; before treatment 2.78 ± 1.10, P <0.0001): 1.59 ± 1.21 | Ocular surface staining score (0-12), after treatment ([1]; before treatment 4.84 ± 3.08, P <0.0001): 2.53 ± 2.55 | OSDI score (0-100), after treatment ([1]; before treatment 50.19 ± 19.17, P 0.0411): 39.80 ± 17.89 | LC3B-II gene encoding level after corticosteroid treatment (LC3B-II mRNA): ~2.57±0.48 times in change | ATG5 gene encoding level after corticosteroid treatment (ATG5 mRNA): approximately 1.23±0.27 times in change | staining spotting pattern of the autodigestion marker in the conjunctiva [2]: normalized
